According to patent US20050197651A1, “Vaginal ring preparation and its application” (priority 2001, published 2005):

Assay: Drug releasing test of the vaginal ring (shaking water bath, HPLC)
Format: physicochemical
Conditions: device of the current invention vs prior art device, FIG. 4 vs FIG. 3 and FIG. 6 vs FIG. 5
Experimental: Drug Releasing Test: Devices used: 1. High Pressure Liquid Chromatography (HPLC). Shimadzu LC-1 OA T • 2. Shaking water bath: HZS-H Process: • 1. Tie the vaginal ring into a big test tube (125 ml). Add 100 ml distilled water into the tube under 37C. Shake the testing tube for 24 hours with shaking rate of 60/minute. Then take the vaginal ring out. • 2. The standard sample is the Mifepristone provided by Shanghai Family Planning Institute. • 3. C-18-[…] Analytic column (Brand: Shimadzu): Pre-set HPLC. The testing conditions are: • Wavelength 310 nm. • Sensitivity: 0.1 AUFS • Speed: 3 Atten. 5 • Flow phase: methanol: water=70:30 • Moving speed=1 ml/minute • Injection amount: 10 μl • Peak time: 5.48 minutes Take 23 μl/ml standard sample, 10 μl injection sample to get the peak area of 656504-656800. Prepare the calibration based on the amount contained in 100 ml.

SMILES | delivery rate over days, compared with prior art vaginal ring
C#C[C@]1(O)CC[C@H]2[C@@H]3CCC4=Cc5oncc5C[C@]4(C)[C@H]3CC[C@@]21C [Danazol] | higher delivery rate of this drug over a longer period of time
CC#C[C@]1(O)CC[C@H]2[C@@H]3CCC4=CC(=O)CCC4=C3[C@@H](c3ccc(N(C)C)cc3)C[C@@]21C [Mifestone, Mifepristone] | significantly higher over a longer period of time
